From US20120196019A1, “STEVIA SWEETENER WITH A SURFACTANT” (priority 2011, published 2012)
Like-named read-outs stand apart in the source and are kept apart here.

Tests used:
[1] = Saturation of Reb A aqueous solution (Example 3); assay type: physicochemical; conditions: water
Description: Three concentrations of Reb A aqueous solutions were prepared: 500 ppm, 0.8% and 2.0%.
The 0.8% (by weight) is saturated.
The 2.0% (by weight) is over-saturated. After preparation, Reb A will continue to precipitate slowly and finally result in a 0.8% solution.

[2] = cited from earlier work; for taste in sensory tests: 100% purity
[3] = DLS size determination of 500 ppm RA solutions with gum Arabic (Example 5, FIGS. 7-9); assay type: physicochemical; conditions: conclusion of Example 5
Description: This example was for size determination.
The solutions noted below were filtered with a 0.45 μm membrane.
Measurements were obtained by DLS after the solution was filtered and allowed to equilibrate for six hours.
According to FIGS. 7 through 9, it was determined that: […]

concentration of the saturated aqueous solution [1]: 0.8 % (by weight)
size of micelles that the molecules tend to form in solution [3]: above 1000 nm
stability of the solution (aggregation) [3]: unstable
SMILES: C=C1C[C@@]23CC[C@H]4[C@@](C)(CCC[C@@]4(C)C(=O)O[C@@H]4O[C@H](CO)[C@@H](O)[C@H](O)[C@H]4O)[C@@H]2CC[C@]1(O[C@@H]1O[C@H](CO)[C@@H](O)[C@H](O[C@@H]2O[C@H](CO)[C@@H](O)[C@H](O)[C@H]2O)[C@H]1O[C@@H]1O[C@H](CO)[C@@H](O)[C@H](O)[C@H]1O)C3 [Reb A, Rebaudioside A]
taste in sensory tests ([2]; 200 ppm aqueous solution): cannot bring a perfect taste close to sugar
taste in sensory tests ([2]; higher concentrations, for example 500 ppm): bitterness and aftertaste issues appear strongly
taste quality (increased sweetness and decreased bitterness) ([2]; Phytochemistry 68, 2007, 1855-1863): better than stevioside
